This passage reports IC50 results from US9540391B2, “Isomannide derivatives as inhibitors of soluble epoxide hydrolase” (SANOFI, priority 2013, dated 2017).

The IC50 is the concentration that inhibits the measured activity by half.

Molecules are shown by their SMILES. Bounds are passed on as bounds.

The assay addresses T1, recombinant sEH (Homo sapiens, UniProt P34913).
T1 construct: made in house; host or cells: Sf9 insect cells
T1 sequence (P34913 1-555): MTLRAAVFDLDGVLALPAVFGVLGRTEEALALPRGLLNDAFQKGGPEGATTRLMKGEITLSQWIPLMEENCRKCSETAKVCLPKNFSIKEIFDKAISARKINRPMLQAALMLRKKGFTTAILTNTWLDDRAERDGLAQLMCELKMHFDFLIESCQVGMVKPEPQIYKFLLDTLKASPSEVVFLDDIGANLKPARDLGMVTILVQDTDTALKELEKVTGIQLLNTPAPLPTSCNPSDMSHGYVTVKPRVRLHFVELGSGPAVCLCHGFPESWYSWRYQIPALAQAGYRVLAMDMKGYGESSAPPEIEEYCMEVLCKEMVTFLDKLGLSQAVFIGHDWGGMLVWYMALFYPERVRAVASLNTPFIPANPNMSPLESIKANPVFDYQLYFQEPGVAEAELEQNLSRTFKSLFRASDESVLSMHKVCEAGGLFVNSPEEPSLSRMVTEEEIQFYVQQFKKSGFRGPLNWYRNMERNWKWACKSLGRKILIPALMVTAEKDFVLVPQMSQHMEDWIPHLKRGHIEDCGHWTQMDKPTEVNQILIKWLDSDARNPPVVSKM
As to the kind of experiment: biochemical screening assay for inhibition of soluble epoxide hydrolase (fluorometric, Phome substrate). The method, boiled down: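 Reading fluorescence before substrate addition and after completion corrected for autofluorescence. Reaction: 5 μM Phome, 2 nM recombinant human sEH (Sf9-expressed), compound 0.0001–10 μM, 25 mM Hepes with 0.01% albumin, 15 min pre-incubation then 60 min at 30 °C; IC50 derived from % inhibition.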
Consider `O=C(NC1CCCCC1)N[C@H]1CO[C@H]2[C@@H]1OC[C@@H]2Oc1cncc(Cl)c1` [Example 33, 1-[(3S,3aR,6S,6aS)-6-(5-Chloro-pyridin-3-yloxy)-hexahydro-furo[3,2-b]furan-3-yl]-3-cyclohexyl-urea], for which the IC50 was 3 nM.
On to `O=C(NC1CCCCC1)N[C@H]1CO[C@H]2[C@@H]1OC[C@@H]2Oc1c[nH]c2ccccc12` [Example 5, 1-cyclohexyl-3-[(3S,3aR,6S,6aS)-6-(1H-indol-3-yloxy)-hexahydro-furo[3,2-b]furan-3-yl]-urea], for which the IC50 worked out at 3 nM.
Turning to `Cc1ncccc1O[C@H]1CO[C@H]2[C@@H]1OC[C@@H]2NC(=O)NCc1cccnc1` [Example 177, 1-[(3S,3aR,6S,6aS)-6-(2-Methyl-pyridin-3-yloxy)-hexahydro-furo[3,2-b]furan-3-yl]-3-pyridin-3-ylmethyl-urea], the IC50 was 456 nM.
Turning to `Cc1nc(-c2ccc(O[C@H]3CO[C@H]4[C@@H]3OC[C@@H]4NC(=O)NC3CCCCC3)cc2)no1` [Example 121, 1-Cyclohexyl-3-{(3S,3aR,6S,6aS)-6-[4-(5-methyl-[1,2,4]oxadiazol-3-yl)-phenoxy]-hexahydro-furo[3,2-b]furan-3-yl}-urea], the IC50 came out at 1 nM.
Turning to `Cc1cccc(NC(=O)NC2COC3C(C#N)COC23)c1` (centres unmarked) [Example 383], the IC50 worked out at 694 nM.
For `Cc1ncccc1O[C@H]1CO[C@H]2[C@@H]1OC[C@@H]2NC(=O)NCc1ccccc1OC(F)(F)F` [Example 179, 1-[(3S,3aR,6S,6aS)-6-(2-Methyl-pyridin-3-yloxy)-hexahydro-furo[3,2-b]furan-3-yl]-3-(2-trifluoromethoxy-benzyl)-urea], the IC50 is under 1 nM.
Turning to `Cc1cccc(CNC(=O)NC2COC3C(CCc4ccccc4)COC23)c1` [Example 359, 1-(3-Methyl-benzyl)-3-[(3S,3aR,6R)-6-((S)-phenethyl)-hexahydro-furo[3,2-b]furan-3-yl]-urea], the IC50 worked out at 111 nM.
With `Cc1cc(C)c(O[C@H]2CO[C@H]3[C@@H]2OC[C@@H]3NC(=O)NC2CCCCC2)cn1` [Example 39, 1-Cyclohexyl-3-[(3S,3aR,6S,6aS)-6-(4,6-dimethyl-pyridin-3-yloxy)-hexa-hydro-furo[3,2-b]furan-3-yl]-urea], the IC50 came to 2 nM.
For the compound `CC1CSc2c(O[C@H]3CO[C@H]4[C@@H]3OC[C@@H]4NC(=O)NC3CCCCC3)csc21` (stereo partly drawn) [Example 145, 1-Cyclohexyl-3-[(3S,3aR,6S,6aS)-6-(6-methyl-5,6-dihydro-thieno[3,2-b]thiophen-3-yloxy)-hexahydro-furo[3,2-b]furan-3-yl]-urea], the IC50 is 14 nM.
As for `O=C(Nc1ccc(F)cc1)NC1COC2C(CCc3ccccc3)COC12` [Example 360, 1-(4-Fluoro-phenyl)-3-[(3S,3aR,6R)-6-((S)-phenethyl)-hexahydro-furo[3,2-b]furan-3-yl]-urea], the IC50 worked out at 81 nM.
As for `COc1cc(NC(=O)NC2COC3C(C=Cc4ccsc4)COC23)cc(OC)c1` [Example 335, 1-(3,5-Dimethoxy-phenyl)-3-[(3S,3aR,-6S,6aR)-6-((Z)-2-thiophen-3-yl-vinyl)-hexahydro-furo[3,2-b]furan-3-yl]-urea], the figure is 665 nM; as for `Cc1ncccc1O[C@H]1CO[C@H]2[C@@H]1OC[C@@H]2NC(=O)NCC1CC(=O)N(C(C)C)C1` (stereo partly drawn) [Example 253, 1-(1-Isopropyl-5-oxo-pyrrolidin-3-ylmethyl)-3-[(3S,3aR,6S,6aS)-6-(2-methyl-pyridin-3-yloxy)-hexahydro-furo[3,2-b]furan-3-yl]-urea], 792 nM.
Take `O=C(NC1CCCCC1)N[C@H]1CO[C@H]2[C@@H]1OC[C@@H]2Sc1nccs1` [Example 56, 1-Cyclohexyl-3-[(3S,3aR,6S,6aS)-6-(thiazol-2-ylsulfanyl)-hexahydro-furo[3,2-b]furan-3-yl]-urea]: the IC50 came out at 2 nM.
`Cc1ccc(S[C@H]2CO[C@H]3[C@@H]2OC[C@@H]3NC(=O)NC2CCCCC2)nc1` [Example 59, 1-Cyclohexyl-3-[(3S,3aR,6S,6aS)-6-(5-methyl-pyridin-2-ylsulfanyl)-hexa-hydro-furo[3,2-b]furan-3-yl]-urea]: the IC50 was determined as 2 nM.
